First: CCn1nc2c(N)nc3ccccc3c2c1CCS(C)(=O)=O
Second: CCOC(=O)c1cnn2c1c(N)nc1ccccc12
The melting point of the first is lower: 220 to 222 °C for the first, 235 to 237 °C for the second.

Compared with `Cc1cccc(C(=O)NCC2CC2)c1NC(=O)c1cc(C(F)(F)F)nn1-c1ncccc1Cl`, `CC(Oc1cccc(-c2ccc(Cl)c(C(=O)NCC34CC5CC(CC(C5)C3)C4)c2)c1)C(=O)O` (configuration not stated) is lower in melting point: 199 °C for the first, 115 to 120 °C for the second.

Compared with `O=C1C2=C(NC3(C=N2)SCCS3)c2ccccc21`, `COC[C@H]1CN(C2=Nc3ccccc3Nc3sc(C)cc32)CCN1C` is lower in melting point: 284 to 290 °C for the first, 76 to 80 °C for the second.

Compared with `Cc1c(Br)ccc(C=NO)c1Cl`, `Cc1ccnn(-c2cccc(Cl)c2)c1=O` is higher in melting point: 77 to 78 °C for the first, 244 to 245 °C for the second.

First: CCCc1oc(C)cc1C(=O)O
Second: CCCc1c(O)ccc2c(=O)cc(C(=O)OCC)oc12
The melting point of the first is lower: 91 to 102 °C for the first, 155 to 162 °C for the second.

First: COc1ccccc1Nc1cc(C(=O)Nc2ccccc2)ccc1OC
Second: COc1ccc(-c2sc3ccccc3c2C(=O)c2ccc(O)cc2)cc1
The melting point of the first is lower: 155 to 156 °C for the first, 188 to 189 °C for the second.

First: O=C(NCc1ccncc1)c1cccnc1Oc1cccnc1
Second: CC(=O)NC(C(=O)NCc1ccncc1)c1ccco1 (configuration not stated)
The melting point of the first is lower: 142 to 144 °C for the first, 168 to 170 °C for the second.

Compared with `CC(C)(C)N(CC(=O)O)C(=O)C(NC(=O)c1ccccc1)SC(=O)c1ccccc1` (configuration not stated), `NC(=O)N(O)CCNC(=O)c1ccccc1Oc1ccccc1` is higher in melting point: 157 to 160 °C for the first, 182 to 185 °C for the second.

First: CC(Nc1ccc(Cl)c(Cl)c1)C(=O)O (configuration not stated)
Second: CNC(=O)N1CC(Oc2ccc(Cl)c(Cl)c2)C1
The melting point of the first is lower: 148 to 149 °C for the first, 158 to 159 °C for the second.

First: CCOC(=O)C(=O)Nc1c(C)cc(C(F)(F)F)cc1[N+](=O)[O-]
Second: CCOC(=O)C1=C(C)Nc2nnnn2C1c1cccc([N+](=O)[O-])c1 (configuration not stated)
The melting point of the first is lower: 118 to 120 °C for the first, 210 to 212 °C for the second.

First: CCCN(CCCc1c[nH]c2ccc(OC)cc12)C1COc2c(F)ccc(C(N)=O)c2C1 (configuration not stated)
Second: CC(C)N(CCc1c[nH]c2cc(Cl)ccc12)Cc1cccc(OCC(F)(F)C(F)(F)F)c1
The melting point of the first is higher: 145 to 152 °C for the first, 77 to 80.2 °C for the second.

First: CC1(C)CCc2c(-c3ccoc3)nc3sc4c(NCCc5c[nH]cn5)ncnc4c3c2C1
Second: OCC1OC(n2cnc3c(NCCc4csc5ccc(Cl)cc45)ncnc32)C(O)C1O (configuration not stated)
The melting point of the first is higher: 265 to 267 °C for the first, 167 to 169 °C for the second.

First: Cc1cc2nn(C)c(=O)n2nc1-c1cccc([N+](=O)[O-])c1
Second: COCCn1cc(-c2ccccc2)n(C(C)=O)c1=O
The melting point of the first is higher: 250 to 253 °C for the first, 73 to 75 °C for the second.

`Nc1nc(SSc2n[nH]c(N)n2)n[nH]1` and `Nc1cc(O)nc2c(-c3ccncc3)c(-c3ccc(F)cc3)nn12` cannot be ordered by melting point: 250 to 256 °C for the first, over 250 °C for the second.

First: Cc1cccc(-c2csc(N3CCN(C(=O)Nc4onc(C)c4C)CC3)n2)c1
Second: Cc1noc(NS(=O)(=O)c2cc(-c3ccccc3)cs2)c1Br
The melting point of the first is higher: 175 to 176 °C for the first, 108 to 110 °C for the second.

Compared with `CCOc1ccc(OCCCN2CCN(c3ccc(Cl)nn3)CC2)cc1`, `CC(=O)NCc1ccc(CN2CCN(c3ccccc3)CC2)cc1[N+](=O)[O-]` is higher in melting point: 125 to 127 °C for the first, 135 to 136 °C for the second.

First: CC(=O)NCCCC(=NNC(N)=S)c1ccccc1
Second: O=C(NCCc1c[nH]c2ccccc12)Oc1ccccc1
The melting point of the first is higher: 74 to 83 °C for the first, 44 to 46 °C for the second.

Compared with `CC(=O)N(CCCCN1C(=O)c2ccccc2C1=O)c1ccccc1`, `Nc1nc(-c2ccc(Cl)cc2C(=O)c2ccccc2)c(CN2C(=O)c3ccccc3C2=O)s1` is higher in melting point: 83 to 84 °C for the first, 253 to 255 °C for the second.

First: Cc1c(Cl)cc(C(C)(C)C)c(O)c1-c1nc2cc(S(=O)(=O)C(F)(F)F)ccc2[nH]1
Second: COCc1nsc2ccc(-n3c(=O)cc(C(F)(F)F)n(C)c3=O)cc12
The melting point of the first is higher: 174 to 176 °C for the first, 161 to 163 °C for the second.

Compared with `CC(O)c1sccc1S(=O)(=O)N(C)c1cccc2cc(-c3nccs3)[nH]c12` (configuration not stated), `Cc1cccc(Nc2nc(N(C)C)ncc2S(=O)(=O)NC(=O)NC(C)C)c1` is lower in melting point: 193 °C for the first, 178 to 179 °C for the second.

Compared with `CC(=NO)c1ccc2c(c1)C(c1ccccc1F)=NC(C)C(=O)N2C` (configuration not stated), `CC1(C)OC(c2ccc(S(C)(=O)=O)cc2F)=C(c2ccccc2)C1=O` is higher in melting point: 101 to 103 °C for the first, 175 to 176 °C for the second.

Compared with `CC(C)(c1ccc(Oc2ccc([N+](=O)[O-])cc2F)cc1)c1cccc(C(C)(C)c2ccc(Oc3ccc([N+](=O)[O-])cc3F)cc2)c1`, `CC(C)(C)OC(=O)NCCc1ccc(OCCC2Oc3cc([N+](=O)[O-])ccc3N(Cc3cccc(Cl)c3)C2=O)cc1` (configuration not stated) is lower in melting point: 151 to 152 °C for the first, 82 to 85 °C for the second.

First: CCOC(=O)c1ccc(O)c(F)c1
Second: O=C(O)CCc1cc(F)cc(F)c1
The melting point of the first is higher: 79 to 80 °C for the first, 56 °C for the second.

First: OC(=S)c1cccnc1
Second: COC(=O)c1nc(OC)c2ccccc2n1
The melting point of the first is lower: 84 to 86 °C for the first, 129 to 130 °C for the second.

First: O=S(=O)(Nc1cc(C(F)(F)F)ccc1-c1cc(Oc2ccc3cccnc3c2)ncn1)c1ccccc1
Second: COc1ccnc(CCc2nc3cc(-c4ccc(S(=O)(=O)Nc5ccc(C)cc5)cc4)cnc3[nH]2)c1
The melting point of the first is lower: 168 to 170 °C for the first, 219 to 220 °C for the second.

First: Clc1ccc(N2CCC3(CCNCC3)CC2)cc1
Second: CC1(CSc2ccc(Cl)cc2)COC2(CCCCCCCCCCC2)OO1 (configuration not stated)
The melting point of the first is higher: 95.5 to 97.4 °C for the first, 93 to 94 °C for the second.

First: COc1ccc2c(c1)C13CCN(C)C(C2)C1CCC(=O)C3 (configuration not stated)
Second: COc1cccc2c1OC1C3CCC4(C(=O)N(CC5CC5)CCC214)C(C(C)(O)C(C)(C)C)C3 (configuration not stated)
The melting point of the first is lower: 187 to 188 °C for the first, 205 to 206 °C for the second.

First: NC(=O)c1snc(Cl)c1Cl
Second: O=C(O)CCCNC(=O)c1nc(Cl)c(Cl)[nH]1
The melting point of the first is lower: 156 to 158 °C for the first, 285 °C for the second.

First: O=C(O)c1c(OCCF)cccc1OCCF
Second: Cc1cc(OCc2ccccc2)c(C)cc1OCCCC(C)(C)C(=O)O
The melting point of the first is lower: 57 to 58 °C for the first, 104 to 106 °C for the second.

Compared with `CCOC(=O)c1c(C)c(C(=O)c2ccc(SC)n2C)n2c1C(C(=O)OCC)CC2` (configuration not stated), `CCOC(=O)C(=CNc1cccc(C2=NC(C)(C)Cc3cc(OC)c4c(c32)CC(C)(C)O4)c1)C(=O)OCC` is lower in melting point: 142 to 143 °C for the first, 115 to 117 °C for the second.

First: CC(=O)OCc1nc([N+](=O)[O-])cn1C
Second: COC(=O)c1cc(C2CO2)cc([N+](=O)[O-])c1 (configuration not stated)
The melting point of the first is higher: 93 to 95 °C for the first, 59 to 60 °C for the second.

First: CC1(C(CCO)C(N)=O)OCCc2c1[nH]c1ccccc21 (configuration not stated)
Second: O=c1cc(CO)oc2ccccc12
The melting point of the first is lower: 159 to 161 °C for the first, 165 to 167 °C for the second.

First: CCCN(C(=O)OCC(C)C)C1Cc2ccc(C3=NNC(=O)CC3)cc2C1 (configuration not stated)
Second: CCN(CC)CC(=O)Nc1ccc(C2=NN(C(C)=O)C(C)Cc3cc4c(cc32)OCO4)cc1 (configuration not stated)
The melting point of the first is lower: 161 to 162 °C for the first, 175 to 176 °C for the second.

Compared with `Nc1nnc2c3c(c(N4CCCC4)nn12)CCCC3`, `CCC1CCCCN1C(=O)C=Cc1c(-c2cccc(NC)c2)nn2ccccc12` (configuration not stated) is lower in melting point: 243 to 244 °C for the first, 135 to 141 °C for the second.

Compared with `COC(=O)C1CSC(=O)C1` (configuration not stated), `CN(c1nc2cc(NC(=O)OC(C)(C)C)ccn2n1)C1CC1` is higher in melting point: 33 to 35 °C for the first, 323 °C for the second.

First: CN(C)C(=O)CC(C)(C)C(=O)O
Second: CN(C)S(=O)(=O)N1CCN(c2ccnc(CO)n2)CC1
The melting point of the first is lower: 119 to 121 °C for the first, 148 to 149 °C for the second.

Compared with `O=C(NCc1ccc(F)c(F)c1)c1ccnc(N2CCN(Cc3ccc(F)cc3)C2=O)c1`, `Cc1noc(NS(=O)(=O)c2ccccc2-c2ccc(-c3ncco3)cc2CN2CCN(C(C)C)C2=O)c1C` is lower in melting point: 182 to 183 °C for the first, 105 to 110 °C for the second.

Compared with `O=c1[nH]cnc2ccc(F)cc12`, `O=S1NC(Cc2cc3ccccc3s2)=NO1` (configuration not stated) is lower in melting point: 252 to 255 °C for the first, 127 to 129 °C for the second.

First: O=CN(O)C(CCCO)CS(=O)(=O)c1ccc(-c2ccc(F)cc2)cc1 (configuration not stated)
Second: O=C(O)c1ccc(-c2nnc(-c3ccccc3[N+](=O)[O-])o2)cc1
The melting point of the first is lower: 143 to 144 °C for the first, 239 to 240 °C for the second.

First: COc1cccc([C@H]2O[C@H](CC(=O)O)C(=O)N(CC(C)(CO)CO)c3ccc(Cl)cc32)c1OC
Second: Cc1cccc(-c2ccc3c(c2)c(C(=O)C(=O)NCC(=O)O)cn3Cc2ccc(C(C)(C)C)cc2)c1
The melting point of the first is higher: 208 to 210 °C for the first, 108 to 109 °C for the second.

First: O=C(O)C1=Cc2cc(-c3ccccc3)ccc2CC1
Second: O=c1c2cc(Cl)ccc2nc2n1CCC2=Cc1ccccc1
The melting point of the first is lower: 208 to 209 °C for the first, 225 to 227 °C for the second.

First: CCOC(=O)C=Cc1ccc(OC)c(-c2cc3c(cc2OCCCCCC(=O)OC(C)(C)C)C(C)(C)CCC3(C)C)c1
Second: COC(=O)c1ccc(Oc2cc3c(cc2C(C)C)C(C)(C)CCC3(C)C)cc1
The melting point of the first is higher: 130 to 132 °C for the first, 115 to 116 °C for the second.

First: CC(C)(C)c1cc2c(c(C(C)(C)C)c1O)CCS2
Second: COc1cc(CN2CCc3cc(O)c(OC)cc3C2)cc(OC)c1
The melting point of the first is lower: 82 °C for the first, 127 to 128 °C for the second.

Compared with `O=S1(=O)c2ccccc2N(c2ccc(O)cc2)c2ccccc21`, `O=C1C2CN(Cc3ccccc3)CC2C(=O)N1Cc1ccccc1` (configuration not stated) is lower in melting point: 308 to 311 °C for the first, 100 °C for the second.

Going from `N#CC1=C(c2cccs2)Nc2n[nH]cc2C1c1cccc2nsnc12` (configuration not stated) to `COC(=O)C1=C(CBr)Nc2ncnn2C1c1cccs1` (configuration not stated), the melting point falls from 254 °C to 155 °C.

First: O=c1[nH]c2cc(Cl)c(Cl)cc2n1[C@@H]1C[C@H](CO)[C@@H](O)[C@H]1O
Second: CN1Cc2c(C#CC(O)(C3CC3)C3CC3)ncn2-c2cccc(Cl)c2C1=O
The melting point of the first is higher: 219 to 220 °C for the first, 179 to 181 °C for the second.

Compared with `CCCCCCCCCCCCCCCCCCOc1ccc(OCc2ccccc2)c(C(=O)OC)c1`, `CC(C)c1ccc(C(=O)NC/C=C/c2ccccc2)cc1` is higher in melting point: 52 to 54 °C for the first, 142 °C for the second.

Compared with `CCN(CC)S(=O)(=O)c1cc2c(c(C(=O)O)c1)OCCO2`, `CC(=O)NNC(=O)c1ccc2occc2c1` is lower in melting point: 149 °C for the first, 145 to 146 °C for the second.

Compared with `CC(C)c1ccc(C2(OC(=O)N(C)C)C(=O)c3ccccc3C2=O)c(OC(=O)N(C)C)c1`, `CCOC(=O)c1ccc(-c2ccc(-c3ccccc3OC)c(-c3ccc4c(c3)C(C)(C)CCC4(C)C)c2)cc1` is lower in melting point: 203 to 205 °C for the first, 133 to 136 °C for the second.

Compared with `Cc1cc(C)nc(N(C(=O)n2cncn2)c2ccccc2)n1`, `CC(C)(CC(O)(C(=O)Nc1ccccc1)C(F)(F)F)c1cc(F)ccc1O` (configuration not stated) is lower in melting point: 157 °C for the first, 124 to 126 °C for the second.

Going from `CC(=O)OC1CCC2(C)C3CCC4(C)C(C(C)=O)CCC4C3CC(Cl)C2(Cl)C1` (configuration not stated) to `CC(C)C(N)CN1CCC(Nc2nc3ccccc3n2Cc2ccc3ccccc3n2)CC1` (configuration not stated), the melting point falls from 187 °C to 135 °C.

— a melting point compilation (Tetko et al.; mined from patent text by program, amines drawn as free bases though some values may be those of a salt)
